Assays:
[1] = test system: several cell lines (human)
[2] = test system: S. aureus (NCTC-8325-4) biofilm; experiment: S. aureus biofilm assay (microtiter wells, crystal violet stain, OD590); format: cell-based, Staphylococcus aureus
Protocol: In the S. aureus biofilm assay, polystyrene microtiter wells and glass tubes well known in the art were used to develop biofilm in vitro. Fractions dissolved in water were added to a sterile tryptic soy broth (TSB, Difco, Detroit) medium at a final concentration between 0.001-0.01% (w/v). Biofilm was developed and measured according to methods well known in the art. Briefly, a single colony of S. aureus (NCTC-8325-4) (or a clinical isolate) grown on blood agar plate was inoculated into the TSB liquid medium and grown in a shaking water bath at 37° C. until it reached an optical density (OD600) of 0.6-0.8. An aliquot was further diluted in TSB to an OD of 0.05 and 0.1 ml was dispensed into sterile microtiter wells. Solubilized SSF were added to the wells (1 μl/ml from 0.1% of filter sterile stock in water). Cells without SSF served as a control. The microtiter plate was incubated at 37° C. with gentle shaking for up to 16 hours.
(§1) At different time points, cells were collected and assayed for biofilm growth. Unbound cells were aspirated and saved for measuring the growth at OD600 and cell viability on agar plates. Loosely bound cells were removed by washing with phosphate buffer saline (PBS) twice and adherent biofilm cells were stained with 1% crystal violet (CV) stain. After extensive washing, stained cells were air dried, solubilized in dimethylsulfoxide (DMSO) and lysates (100 μl) were measured by a plate reader at OD590.

[3] = test system: S. aureus; experiment: S. aureus growth (OD600) and cell viability on agar plates; format: cell-based, Staphylococcus aureus; settings: growth in TSB with or without substance
Protocol: as §1

[4] = test system: sweet taste; settings: cited from earlier work
[5] = test system: rat chorda tympani nerve; settings: glucose, sucrose, glycine and saccharine; known in the art; cited from earlier work
[6] = test system: poly N-acetylglucosamine (PNAG); experiment: PNAG western blot of S. aureus biofilm cells (anti-PNAG rabbit polyclonal antibody); format: cell-based, Staphylococcus aureus; settings: for PNAG synthesis in the presence of activator: LBBI-1 and LBBA-1 incubated together during biofilm growth

With gurmarin [LBBI-1] the “toxicity to cell lines” value [1] was “non-toxic”, the biofilm inhibitory property ([2]; 2 μg/ml concentration, microtiter biofilm assay) was “confirmed” and the “S. aureus biofilm growth” value ([2]; FIG. 3B) was “prevents S. aureus biofilm growth”. For the same substance, the “biofilm production in the presence of LBBA-1” value ([2]; in the presence of LBBA-1) was “can inhibit biofilm production”, the “S. aureus cell growth and viability” value [3] was “did not affect the growth of S. aureus” and the “sweet taste suppression in humans” value [4] was “no apparent effect”. The “response of the rat chorda tympani nerve to sweet-taste stimuli” value [5] was “suppress the response”, the “PNAG synthesis in the presence of activator” value [6] was “almost abolished” and the “PNAG synthesis in the presence of activator” value ([6]; listed as biofilm inhibitor) was “suppresses the production of PNAG”. For the same substance, the PNAG production ([6]; western blot, S. aureus biofilm) was “significantly less PNAG production”.
